63 compounds from patent US20130085133A1, “ANTI-VIRAL TREATMENT AND ASSAY TO SCREENFOR ANTI-VIRAL AGENT” (Sourthern Research Institute Office of Commercialization …, priority 2010, published 2013) can be followed below.

The subject of data set [1] is respiratory syncytial virus (RSV) strain Long. The experiment in a line: microbe, parasite or virus in culture. To be noted: human respiratory syncytial virus, HEp-2, 144 h.
Data set [2] can be described thus: cytotoxicity assay (percent viability of HEp-2 cells, Cell Titer-Glo). To be noted: human, HEp-2 cells. Background: In ATP-based viability assays light output follows the ATP content of the culture.
Experimental: Test compounds were evaluated by measuring their antiviral activity, cell toxicity, and selectivity. Test compounds were serially diluted in a plate to plate matrix or “stacked plate” matrix. All 320 compounds in a source plate were diluted together resulting in a 10 point dose response dilution series. It was visualized as a serial dilution series proceeding vertically through a stack of plates with the high dose plate on top and the low dose plate on the bottom.
Following the six day incubation period, the assay plates were equilibrated to room temperature for 30 min and an equal volume (30 μL) of Cell Titer-Glo reagent (Promega Inc.) was added to each well using a WellMate (Matrix, Hudson, N.H.) and plates were incubated for an additional 10 min at room temperature. At the end of the incubation, luminescence was measured using a Perkin Elmer Envision™ multi-label reader (PerkinElmer, Wellesley, Mass.) with an integration time of 0.1 s.
Data was analyzed using ActivityBase software (IDBS, Inc, Guilford, UK). thirty two control wells containing cells only and twenty four wells containing cells and virus were included on each assay plate and used to calculate Z′ value for each plate and to normalize the data on a per plate basis. […] Eight ribavirin positive control wells were included on each plate for quality control purposes, but were not used in Z′ calculations. […] In the toxicity assay, results are described as percent viability and the calculation is the same.
An EC50 (for CPE inhibition) and IC50 (for cell viability) were calculated for each substance using the 4 parameter Levenburg-Marquardt algorithm with parameter A locked at 0 and parameter B locked at 100. Standard deviation, normalized chi2 and hill slope were used to evaluate the curves. Values were not extrapolated beyond the tested range of concentrations.

Some results are limits rather than exact numbers.

`O=C(Nc1cccc(Br)c1)C1CCN(C(=O)c2ccc([N+](=O)[O-])cc2)CC1` [AB00317214]: a half-maximal response in data set [1] (EC50) required 12.4 µg/mL. Also, in data set [2], the 50% cytotoxic concentration (CC50) – broadly, the concentration at which the toxic effect on the cells reaches its halfway point – at 6 days is more than 25 µg/mL.
Take `CCOC(=O)C1=C(c2ccccc2)NC(=S)NC1c1ccccc1OCC(=O)Nc1ccccc1` (stereo not drawn) [AB00355044]: in data set [1], the response was half-maximal at 6.39 µg/mL (EC50). Moreover, the CC50 at 6 days in data set [2] was more than 25 µg/mL.
For `Cc1cc(C)cc(C(=O)Nc2ccc(C#N)cc2)c1` [AB00340723] the same measures were 19.8 µg/mL and more than 25 µg/mL.
For `O=C(Nc1c(F)cc(F)cc1Br)c1ccc(Cl)s1` [AB00366410] the same measures were 20.2 µg/mL and more than 25 µg/mL.
Taken in the same sequence, the figures for `COc1ccc(C(=O)N2CCC(C(=O)Nc3cccc(C(F)(F)F)c3)CC2)cc1` [AB00298665] were 12.1 µg/mL and more than 25 µg/mL.
Consider `CNc1ncnc2c1ncn2[C@@H]1C[C@H](CO)[C@H](O)[C@@H]1O` [SRI-4711], for which the concentration for a half-maximal effect (EC50) (usually the concentration needed to bring the measured effect to its halfway point) in data set [1] turned out to be 24.5 µM. Moreover, in data set [2], the 50% cytotoxic concentration (CC50) at 6 days was more than 50 µM.
For `O=c1c2c([nH]c3ccccc13)-c1ccccc1-n1c(nc3ccccc3c1=O)C2` [AB00700560] the same measures were 11.3 µM and more than 50 µM.
Taken in the same sequence, the figures for `N#Cc1c(Cl)nc(N)c(N)c1C(F)(F)F` [AB00430151] were 38.4 µM and more than 50 µM.
Consider `Cc1ccccc1C(=O)Nc1sc2c(c1C(=O)N1CCN(Cc3ccccc3)CC1)CCCCC2` [AB00284323], for which a half-maximal response in data set [1] (EC50) required 17.5 µg/mL. Moreover, the CC50 at 6 days in data set [2] is more than 25 µg/mL.
For `NC(=O)c1ncn([C@@H]2O[C@H](CO)[C@@H](O)[C@H]2O)n1` [AB00430481] the same measures were 38.8 µM and more than 50 µM.
For `Cc1nc(N)sc1-c1nnc(Nc2ccccc2)s1` [AB00358926] the same measures were 12.7 µg/mL and more than 25 µg/mL.
For `CCC(C)N(C(=O)c1cc(Cl)ccc1OC)C(C)CC` (stereo not drawn) [AB00310767] the same measures were 15 µg/mL and more than 25 µg/mL.
In turn, `COCCn1c(SCC(=O)NC2CCCc3ccccc32)nnc1-c1cccc(C)c1` (stereo not drawn) [AB00728760] yielded an EC50 in data set [1] of 37.9 µM. This compound returned a half-maximal cytotoxic concentration (CC50) at 6 days in data set [2] of more than 50 µM.
For `COc1ccc(-c2cc(C(=O)O)c3cc(Br)ccc3n2)c(OC)c1` [AB00313218] the same measures were 22.2 µg/mL and more than 25 µg/mL.
Taken in the same sequence, the figures for `COC(=O)c1sc2cc(NC(=S)NCCCN3CCCC3=O)ccc2c1Cl` [AB00351451] were 17.5 µg/mL and more than 25 µg/mL.
For `Fc1cnc(N2CCOCC2)nc1N1CCc2ccccc21` [AB00362810] the same measures were 21.1 µg/mL and more than 25 µg/mL.
In data set [1], `Nc1ccc2oc(-c3cc(F)c(F)cc3Cl)nc2c1` [AB00311411] displayed a concentration for a half-maximal effect (EC50) of 22.7 µg/mL. In data set [2], this compound had a CC50 at 6 days of more than 25 µg/mL.
Taken in the same sequence, the figures for `Cc1ccc(-c2csc3nc[nH]c(=O)c23)cc1C` [AB00297372] were 10.9 µg/mL and more than 25 µg/mL.
For `CC(=O)CCc1c(O)nc2ccccc2c1C` [AB00279389] the same measures were 14.2 µg/mL and more than 25 µg/mL.
Taken in the same sequence, the figures for `O=C(NC1=NCCS1)c1cc2c(s1)CCCCCC2` [AB00367559] were 19.6 µg/mL and more than 25 µg/mL.
`CSc1ccc(Cl)c(C(=O)Nc2ccc(N3CCCCC3)cc2)c1` [AB00717474] showed a concentration giving a half-maximal response (EC50) in data set [1] of 12.2 µM. The compound also returned a 50% cytotoxic concentration (CC50) at 6 days in data set [2] of more than 50 µM.
Taken in the same sequence, the figures for `O=C(O)c1ccc(-c2cccc(Cl)c2Cl)o1` [AB00287600] were 12.7 µg/mL and more than 25 µg/mL.
For `Oc1cccc2ccc(N3CCOCC3)nc12` [AB00275625], the concentration for a half-maximal effect (EC50) in data set [1] amounted to 15.2 µg/mL. The same compound returned a CC50 at 6 days in data set [2] of more than 25 µg/mL.
Taken in the same sequence, the figures for `Cn1c(SCC(=O)N2c3ccccc3SC3C=CC=CC32)nnc1-c1ccccc1` (stereo not drawn) [AB00370949] were 18.8 µg/mL and more than 25 µg/mL.
For the compound `O=C1c2ccccc2C(=O)N1CCCCN(C(=O)c1ccccc1[N+](=O)[O-])c1ccc(Cl)cc1` [AB00301378], a half-maximal effect in data set [1] (EC50) was put at 17.8 µg/mL. The compound also displayed a CC50 at 6 days in data set [2] of more than 25 µg/mL.
Taken in the same sequence, the figures for `O=C(Nc1ccccc1Br)c1cnccn1` [AB00310846] were 19.6 µg/mL and more than 25 µg/mL.
Taken in the same sequence, the figures for `O=c1[nH]c(=O)n(Cc2ccc([N+](=O)[O-])cc2)cc1F` [AB00173190] were 21 µM and more than 50 µM.
Taken in the same sequence, the figures for `O=c1c2c3c(sc2ncn1CCO)CCCC3` [AB00372624] were 23.6 µg/mL and more than 25 µg/mL.
In data set [1], `CCOc1ccccc1OCCOCCOc1cccc2cccnc12` [AB00289145] registered a concentration for a half-maximal effect (EC50) of 24.2 µg/mL. The CC50 at 6 days in data set [2] is more than 25 µg/mL.
Taken in the same sequence, the figures for `COc1ccc(-n2nnnc2SCCO)cc1` [AB00364099] were 19.2 µg/mL and more than 25 µg/mL.
For `COC(=O)C1=C(C)N(Cc2ccccc2)C(=O)NC1c1ccc(C(=O)OC)cc1` (stereo not drawn) [AB00318401] the same measures were 2.39 µg/mL and more than 25 µg/mL.
For `Cc1ccc2nc(-c3ccccc3)c(CN3CCCC3)c(O)c2c1` [AB00293683] the same measures were 18.8 µg/mL and more than 25 µg/mL.
With `COc1ccc(NC(=O)CN2c3cccc4cccc(c34)S2(=O)=O)c(OC)c1` [AB00293237], the half-maximal effective concentration (EC50) in data set [1] was found to be 10.3 µg/mL. In addition, in data set [2], the cytotoxic concentration (CC50) at 6 days was more than 25 µg/mL.
Taken in the same sequence, the figures for `COC(=O)c1c(-c2ccc(C)cc2)csc1NC(=O)c1ccccc1Br` [AB00310224] were 24.5 µg/mL and more than 25 µg/mL.
Taken in the same sequence, the figures for `Cn1cnnc1SCC(=O)N1c2ccccc2Sc2ccc(C(F)(F)F)cc21` [AB00139215] were 10.9 µg/mL and more than 25 µg/mL.
Taken in the same sequence, the figures for `COCCNC(=O)Nc1ccc2nc(-c3cccs3)c(-c3cccs3)nc2c1` [AB00302454] were 15.3 µg/mL and more than 25 µg/mL.
Take `CCC(Oc1ccc(-c2ccc(C)cc2)cc1)C(=O)OC` (stereo not drawn) [AB00298660]: the EC50 in data set [1] was 13.5 µg/mL. In data set [2], this compound gave a CC50 at 6 days of more than 25 µg/mL.
Taken in the same sequence, the figures for `O=C(COC(=O)c1c2c(nc3ccccc13)/C(=C/c1cccs1)CC2)NCC(F)(F)F` [AB00725240] were 43.3 µM and more than 50 µM.
Taken in the same sequence, the figures for `O=c1[nH]cnc2sc3c(c12)CCCCC3` [AB00276706] were 19.6 µg/mL and more than 25 µg/mL.
Taken in the same sequence, the figures for `COC(=O)Cc1ccc2c3ccccc3n(C)c2c1` [AB00299031] were 21.7 µg/mL and more than 25 µg/mL.
`CC(=O)Nc1ccc(C(=O)OCc2ccc(C(C)=O)cc2)cc1` [AB00359127]: in data set [1], it took 18.9 µg/mL to reach a half-maximal effect (EC50). The CC50 at 6 days in data set [2] is more than 25 µg/mL.
For `CCOc1cc(C2CC(=O)Nc3c2ccc2ccccc32)cc(Cl)c1O` (stereo not drawn) [AB00317685] the same measures were 20.9 µg/mL and more than 25 µg/mL.
Taken in the same sequence, the figures for `CCn1c(COc2ccccc2OC)nc2ccccc21` [AB00296345] were 18.9 µg/mL and more than 25 µg/mL.
For `CC(Oc1ccc(Cl)cc1Cl)C(=O)Nc1ccc(F)c(F)c1` (stereo not drawn) [AB00314248] the same measures were 23.8 µg/mL and more than 25 µg/mL.
With `Cc1ccnc(NCc2cc(Br)ccc2O)c1` [AB00318952], in data set [1], the midpoint of the response, the EC50, lay at 22.2 µg/mL. The same compound came in with a CC50 at 6 days in data set [2] of more than 25 µg/mL.
For `OCc1cccc2c(Br)cccc12` [AB00375379] the same measures were 39.2 µM and more than 50 µM.
For `CC1(C)Cc2c(sc(NC(=O)c3ccccc3Br)c2C(N)=O)CO1` [AB00363547] the same measures were 13.3 µg/mL and more than 25 µg/mL.
For `O=C(Nc1ccc(Nc2ccccc2)cc1)c1ccccc1F` [AB00282102] the same measures were 12 µg/mL and more than 25 µg/mL.
Regarding `Cc1ccc2c(Cn3cnc4scc(-c5ccc(F)cc5)c4c3=O)cc(=O)oc2c1` [AB00796970], the response in data set [1] was half-maximal at 10.6 µM (EC50). The compound further registered a half-maximal cytotoxic concentration (CC50) at 6 days in data set [2] of more than 50 µM.
In the case of `Oc1ccc(O)cc1` [AB00053361], a half-maximal response in data set [1] (EC50) required 47.9 µM. The same compound came in with a CC50 at 6 days in data set [2] of more than 50 µM.
For `CCOc1ccc(NC(=O)CSC2=C(C#N)C(c3ccncc3)C(C(=O)Nc3ccccc3)=C(C)N2)cc1` (stereo not drawn) [AB00292155] the same measures were 15.7 µg/mL and more than 25 µg/mL.
In data set [1], `CC(C)(C)C1CCc2nc3ccccc3c(C(=O)OCC(=O)Nc3ccc(C#N)cc3)c2C1` (stereo not drawn) [AB00721928] registered an EC50 of 41.9 µM. The 50% cytotoxic concentration (CC50) at 6 days in data set [2] is more than 50 µM.
The compound `CCOC(=O)c1ccccc1NC(=O)c1cc(S(=O)(=O)N(CC)c2ccccc2)ccc1Cl` [AB00718457] had an EC50 in data set [1] of 23.8 µM. For the same compound, in data set [2], the CC50 at 6 days is more than 50 µM.
Taken in the same sequence, the figures for `O=C(c1cccc(OC(F)F)c1)N1CCc2cc([N+](=O)[O-])ccc21` [AB00764110] were 41.5 µM and more than 50 µM.
For `Cc1ccc(-c2nc3cc(N)ccc3o2)cc1Br` [AB00076694] the same measures were 16.4 µg/mL and more than 25 µg/mL.
For `Cc1ccc(C(=O)Nc2ccc(OC(C)C)cc2)cc1C` [AB00297482], the half-maximal effective concentration (EC50) in data set [1] was 14.1 µg/mL. The half-maximal cytotoxic concentration (CC50) at 6 days in data set [2] was more than 25 µg/mL.
Taken in the same sequence, the figures for `COC(=O)Nc1ccc2ccccc2c1` [AB00314279] were 23.5 µg/mL and more than 25 µg/mL.
Take `CC(=O)Nc1ccc(S(=O)(=O)N(C)CC(=O)Nc2ccccc2Oc2ccccc2)cc1` [AB00798716]: the response in data set [1] was half-maximal at 49.8 µM (EC50). This compound showed a CC50 at 6 days in data set [2] of more than 50 µM.
`Cc1cnc(NC(=O)c2ccc(Cl)cc2Cl)s1` [AB00276221]: the half-maximal effective concentration (EC50) in data set [1] turned out to be 17.6 µg/mL. This compound also came in with a CC50 at 6 days in data set [2] of more than 25 µg/mL.
Taken in the same sequence, the figures for `C/C(N)=C(/C#N)C(=O)CSc1nc2sc3c(c2c(=O)n1-c1ccccc1C(F)(F)F)CCCCC3` [AB00728757] were 18.1 µM and more than 50 µM.
The compound `NC(=O)c1ccccc1NC(=O)CSc1nc2ccccc2o1` [AB00132114] displayed a half-maximal effective concentration (EC50) in data set [1] of 20.7 µg/mL. In data set [2], this compound had a cytotoxic concentration (CC50) at 6 days of more than 25 µg/mL.
For `C=CCNc1cc(N2CCN(C(=O)c3ccc(Cl)cc3)CC2)ccc1[N+](=O)[O-]` [AB00315446] the same measures were 12 µg/mL and more than 25 µg/mL.
For `CCOC(=O)c1ccc(NC(=O)NCCc2ccccc2OC)cc1` [AB00348268] the same measures were 21.4 µg/mL and more than 25 µg/mL.
